Values of other authors in patent publication US20220235022A1 (priority 2019, published 2022).

Key:
[1] = compared with Δ^9-THC; reported
[2] = conjugate acid of the base, approximate values

In the case of CCCCCc1cc(O)c2c(c1)OC(C)(C)[C@@H]1CC=C(C)C[C@@H]21 [Δ^8-THC, Δ^8-tetrahydrocannabinol], the “less potent in terms of psychoactivity” value [1] is given as “approximately 50%”.
For Cc1cccc(C)n1 [2,6-dimethylpyridine], the “pKa (conjugate acid in DMSO)” value [2] is listed as 4.46.
